One data set has as its system HCASMC. The experiment in a line: CytoTox-ONE LDH release cytotoxicity assay, HCASMC. The class given is cell-based, human. To be noted: 48 hours, Melatonin 0.2 to 6 mM. As to the method:
(§1) Cytotoxicity experiments were performed with cells cultured on 96-well plates. The CytoTox-ONE™ Assay from Promega was used to assess the membrane integrity of cells. This test is based on a fluorometric method to estimate the number of non viable cells present in multiwell plates by measuring the release of lactate dehydrogenase (LDH) from cells with damaged membranes. Subconfluent cells were incubated for 48 hours with Melatonin at concentrations between 0.2 and 6 mM. During the 48 h Melatonin incubation, the medium was not changed to avoid removal of any detached cells. As a positive control three wells of untreated cells were incubated with lysis buffer (delivered with the assay) before measurement. At the end of the Melatonin incubation period, a volume of CytoTox-ONE reagent equal to the volume of cell culture medium present in each well was added. After 10 min incubation at 22° C. (room temperature), 50 μl of stop solution was added per 100 μl of CytoTox-ONE reagent added. The plate was shaken for 10 seconds and fluorescence was recorded with an excitation wavelength of 560 nm and an emission wavelength of 590 nm (Spectramax M2 fluorescence plate reader, Molecular devices).
In general terms: Release of lactate dehydrogenase indicates damage to the cell membrane.

In data set [1] the test system is HCAEC. The experiment in a line: CytoTox-ONE LDH release cytotoxicity assay, HCAEC. The class given is cell-based, human. Conditions: 48 hours, Melatonin 0.2 to 6 mM. How it is done: as §1
In data set [2] the test system is HCAEC. In words: Chemotaxis towards VEGF-A, modified Boyden chamber, HCAEC. The class given is cell-based, human. Conditions: 2 mM Melatonin for 48 hours; VEGF-A 10 ng/ml; migration 4 hours; performed only once. How it is done:
Chemotaxis experiments were performed using a modified Boyden chamber. The apparatus consists of two multi-well chambers separated by a filter containing pores of uniform size. A solution containing a chemokine or chemotactic factor is placed in the lower/bottom chamber and a cell suspension is placed in the upper chamber. Cells can migrate through the pores across the filter and towards the chemoattractant in the lower chamber. Cells that migrated across the filter and remain attached to the lower side of the membrane are counted. Data are expressed in terms of migration index: the number of cells that migrated in response to agonist stimulation compared to the number of cells that migrated randomly, i.e. to medium only. Chemotaxis experiments so far were only performed with HCAEC. For these cells a 25×80 mm polycarbonate filter, […] (PVP) free was used (Whatman) with a pore size of […]. Before migration the filter was coated with collagen. Endothelial cells were incubated with Melatonin at 2 mM prior to and during migration. […] Cells were stimulated with VEGF-A at 10 ng/ml. Cells were allowed to migrate for 4 hours at 37° C./5% CO2. At the end of migration, cells were fixed on the filter, stained with Giemsa and counted using a regular optic microscope.

The subject of data set [3] is human coronary artery endothelial cells (HCAEC). In words: CellTiter 96 One solution (MTS) cell proliferation assay, HCAEC. The data set is classed as cell-based. As to the method:
(§2) Human coronary artery endothelial cells (HCAEC) were purchased from Cambrex and human coronary artery smooth muscle cells (HCASMC) were purchased from Promocell. Cells were used for experiments between passage 4 and passage 12. Both cell types were cultured in their respective complete culture medium with the following composition: HCAEC: Endothelial Growth Media-2 MV: hEGF, Hydrocortisone, GA-1000, FBS 5%, VEGF, hFGF-B, R3-IGF-1, Ascorbic Acid Medium was changed every other day. 24 hours prior to growth factor stimulation, the medium was replaced by fresh culture medium, however, without growth factors to increase the cellular sensitivity to the subsequent growth factor stimulation. Subconfluent HCAEC were stimulated with 10 ng/ml of VEGF-A, whereas subconfluent HCASMC were stimulated with 10 ng/ml of PDGF-BB. Likewise, both cell types were stimulated with 25% of human serum (final concentration). All proliferation and cytotoxicity experiments were performed on cells cultured on 96 well plates (Costar). The CellTiter 96 One solution cell proliferation assay from Promega was used to assess cell proliferation in a 96-well plate. This assay makes use of the MTS tetrazolium compound as a cellular substrate. MTS is bioreduced by living cells into a colored formazan product that is soluble in tissue culture medium and absorbs light at 490 nm. The quantity of formazan produced is directly proportional to the number of living cells in culture. After 24 h stimulation, 20 μl of MTS reagent was added to the cells cultured in 100 μl of medium per well. After 2 to 4 hours of incubation at 37° C., 5% CO2, the absorbance at 490 nm was recorded using a 96-well plate reader (Tecan).

For data set [4], the system named is human coronary artery smooth muscle cells (HCASMC). The experiment in a line: CellTiter 96 One solution (MTS) cell proliferation assay, HCASMC. The class given is cell-based. How it is done:
as §2, with “HCASMC: Smooth Muscle Cell” for “HCAEC: Endothelial”, “Medium 2: Epidermal Growth Factor (EGF), basic Fibroblast Factor (FGF), Insulin, Fetal Calf Serum (FCS)” for “Media-2 MV: hEGF, Hydrocortisone, GA-1000, FBS”, “Amphotericin B, Gentamicin.” for “VEGF, hFGF-B, R3-IGF-1, Ascorbic Acid”

Data set [5] has as its system HUVEC (Human Umbilical Vein Endothelial Cells). In words: [3H]-thymidine incorporation, HUVEC stimulated with VEGF-A. Conditions: VEGF A 10 ng/ml 24 hours. The class given is cell-based. As to the method: To investigate, whether melatonin has similar effects on other cell types, HUVEC (Human Umbilical Vein Endothelial Cells, Promocell) were tested. HUVEC were cultured in the corresponding complete medium (Endothelial Cell Growth Medium: ECGS/H 0.4%, Fetal Calf Serum 2%, Epidermal Growth Factor 0.1 ng/ml, Hydrocortisone 1 μg/ml, basic Fibroblast Factor 1 ng/ml, Amphotericin B 50 ng/ml, Gentamicin 50 μg/ml). 24 hours prior to stimulation, the medium was replaced by a medium containing 2% serum and antibiotics, but devoid of the other complements. Then, HUVEC were stimulated with 10 ng/ml of VEGF-A for 24 hours. HUVEC were incubated for 48 hours with Melatonin and stimulated for 24 hours with VEGF-A at 10 ng/ml. After 24 hours of stimulation, the cells were incubated with radioactive [^3H]-thymidine. Two hour later, the medium was removed and cell-bound DNA was precipitated using 5% TCA (Trichloroacetic acid). Then, [^3H]-thymidine incorporation was measured using a beta-counter.
For orientation: Uptake of a labelled nucleoside into DNA is a usual measure of proliferation.

Each structure is given as a SMILES string. “And” between values parts separate entries of the source, which are not always exact repeats. Equal values may be shown once.

Regarding `COc1ccc2[nH]cc(CCNC(C)=O)c2c1` [Melatonin, N-acetyl-5-methoxytryptamine], the “cytotoxic effect (LDH release)” value in the data set with HCASMC and with HCAEC [1] was “does not induce any detectable cytotoxic effect” throughout. For the same compound, in the data set on HCAEC [2], the “effect on chemotactic response towards VEGF-A” value was “did not have any significant effect”. Further, the “concentration at which proliferation is strongly inhibited” value in data set [3] (HCAEC) and in data set [4] (HCASMC) was “higher than 0.2 mM” each time. In addition, the “effect on cell number” value in data set [3] (Melatonin between 1 mM and 6 mM) is “dramatic decrease in cell number”. The “concentration of maximal effect” value in data set [3] (tested 1 μM to 6 mM) was 3 mM and 6 mM. For the same compound, the “sensitivity of HCAEC to Melatonin” value in data set [3] (up to 0.1 mM Melatonin) is given as “not sensitive”. Besides, in data set [4] (1 mM Melatonin, 24 hours pre-treatment, PDGF BB 10 ng/ml 24 h), the “effect on number of smooth muscle cells” value is “significant decrease in the number of smooth muscle cells”. The “effect on proliferation of HCASMC” value in data set [4] (Melatonin up to 0.1 mM, PDGF BB 10 ng/ml 24 h) is “no significant effect”. In addition, the “concentration of maximal inhibitory effect” value in data set [4] (tested up to 10 mM) turned out to be 5 mM. The “effect on HUVEC ([3H]-thymidine incorporation)” value in data set [5] (0.2 mM Melatonin, 48 hours) is listed as “inhibitory effect”. Also, the “VEGF-A induced [3H]-thymidine incorporation” value in data set [5] (Melatonin 48 hours) is given as “completely inhibited”.

(Values after patent US20080050413A1, “Medical stent provided with a combination of melatonin and paclitaxel” (priority 2006, published 2008).)
